Measured values from the NIST ThermoML archive (doi:10.1021/je9004992).

Assay: molar heat capacity at constant pressure
Conditions: Liquid, Small sample (50 mg) DSC

CCn1cc[n+](C)c1.F[B-](F)(F)F [1-ethyl-3-methylimidazolium tetrafluoroborate]
molar heat capacity at constant pressure [J/K/mol]
Conditions	283.15 K	288.15 K	293.15 K	298.15 K	303.15 K	308.15 K	313.15 K	318.15 K	323.15 K
100 kPa	300.19	301.67	303.23	304.87	306.58	308.36	310.23	312.17	314.18
2000 kPa	300.22	301.7	303.26	304.9	306.61	308.4	310.26	312.2	314.21
4000 kPa	300.24	301.73	303.29	304.93	306.64	308.43	310.29	312.23	314.24
6000 kPa	300.27	301.76	303.32	304.96	306.67	308.46	310.32	312.26	314.27
8000 kPa	300.3	301.79	303.35	304.99	306.7	308.49	310.35	312.29	314.3
10000 kPa	300.33	301.82	303.38	305.02	306.73	308.52	310.38	312.32	314.33
12000 kPa	300.35	301.85	303.41	305.05	306.77	308.55	310.42	312.35	314.36
14000 kPa	300.38	301.87	303.44	305.08	306.8	308.59	310.45	312.38	314.39
20000 kPa	300.46	301.96	303.53	305.18	306.89	308.68	310.54	312.47	314.48
30000 kPa	300.6	302.1	303.68	305.33	307.05	308.84	310.7	312.63	314.63
40000 kPa	300.73	302.25	303.83	305.49	307.21	309	310.86	312.79	314.78
50000 kPa	300.87	302.39	303.98	305.64	307.37	309.16	311.02	312.94	314.93
60000 kPa	301	302.54	304.13	305.8	307.52	309.32	311.17	313.1	315.08
